Data on one molecule can be found in patent US8679513B2, “Cosmetic use of a jasmonic acid derivative for treating the hair and the scalp” (L'Oreal, priority 2009, dated 2014).

The assay has as its system human epidermoid keratinocytes in culture (HaCaT) exposed to UV radiation. Kind of assay: Evaluation of the antioxidant potential: DCFH-DA test. The class given is cell-based. The following applies: HaCaT keratinocytes pretreated 24 hours; DCFH-DA 20 μM 30 minutes; 2 J/cm^2 UVA; compound used as 30% solution in water/dipropylene glycol (70/30); preliminary tests. On the procedure:
Evaluation of the Antioxidant Potential: DCFH-DA Test
The sodium salt of 3-hydroxy-2-pentylcyclopentane-acetic acid is used as a 30% solution in a water/dipropylene glycol mixture (70/30).
In a model of human epidermoid keratinocytes in culture (HaCaT) exposed to UV radiation, the global oxidative stress effect of the said compound after oxidation of a fluorescent probe (DCFH-DA) is measured.
The use of DCFH-DA as a marker of intracellular global oxidative stress is based on its physicochemical properties. It is a nonionic apolar molecule that is capable of diffusing across cell membranes. Once inside the cell, DCFH-DA is hydrolysed by intracellular esterases to a non-fluorescent compound: DCFH or 2,7-dichlorofluorescine. In the presence of activated oxygen species (H2O2; OH°), DCFH is rapidly oxidized to a highly fluorescent compound: DCF or 2,7-dichlorofluorescein.
HaCaT keratinocytes pretreated with the active agents for 24 hours are rinsed with PBS+ and incubated in the presence of DCFH-DA [20 μM] for 30 minutes at 37° C. in the dark.
After removal of the probe, the cells are exposed to 2 J/cm^2 of UVA (WG335 filter) in the presence of 1 ml/well of PBS+. The DCF fluorescence is evaluated immediately after the UVA exposure, by spectrofluorimetry (excitation 480 nm; emission 530 nm).

On to `CCCCCC1C(O)CCC1CC(=O)[O-].[Na+]` (stereo not shown) [sodium salt of 3-hydroxy-2-pentylcyclopentaneacetic acid], for which the “antioxidant potential / protection against oxidative stress (DCF fluorescence)” value is given as “antioxidant potential with protection against oxidative stress”.
